The results in this text go back to PMC13185748, “Targeting noncanonical nuclear factor kappa B signalling in CYLD cutaneous syndrome by selective inhibition of IκB kinase alpha” (The British Journal of Dermatology, 2026).

For this assay, the target named is T1, IκB kinase alpha (IKKα) (Homo sapiens, UniProt O15111).
T1 construct: gene CHUK
T1 sequence (O15111 1-745): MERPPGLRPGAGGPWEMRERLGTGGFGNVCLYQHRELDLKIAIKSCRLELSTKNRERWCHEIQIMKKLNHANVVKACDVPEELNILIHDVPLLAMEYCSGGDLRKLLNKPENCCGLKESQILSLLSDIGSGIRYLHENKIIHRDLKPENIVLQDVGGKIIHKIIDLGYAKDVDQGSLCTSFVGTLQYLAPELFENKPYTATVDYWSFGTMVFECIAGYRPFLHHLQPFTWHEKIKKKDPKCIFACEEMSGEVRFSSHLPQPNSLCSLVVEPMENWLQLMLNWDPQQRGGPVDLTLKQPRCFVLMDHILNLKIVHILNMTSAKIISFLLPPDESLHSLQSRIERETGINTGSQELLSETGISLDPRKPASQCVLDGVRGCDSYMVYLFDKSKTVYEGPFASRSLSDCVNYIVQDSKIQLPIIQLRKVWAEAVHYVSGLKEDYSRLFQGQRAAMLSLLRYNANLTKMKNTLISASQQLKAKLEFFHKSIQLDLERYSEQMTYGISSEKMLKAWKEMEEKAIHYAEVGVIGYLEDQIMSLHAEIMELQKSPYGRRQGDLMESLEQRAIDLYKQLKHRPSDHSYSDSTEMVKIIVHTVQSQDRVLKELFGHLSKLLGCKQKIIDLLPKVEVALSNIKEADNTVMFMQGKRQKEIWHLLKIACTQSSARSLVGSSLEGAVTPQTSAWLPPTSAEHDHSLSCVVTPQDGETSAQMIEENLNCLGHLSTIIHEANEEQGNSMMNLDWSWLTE
The experiment in a line: target engagement in PC3m cells by pharmacodynamic markers (p100 phosphorylation; RelB nuclear translocation), data not shown. The format is cell-based.

For orientation: IC50 means the midpoint of a concentration-inhibition curve. A high value points to lower potency. The substance SU1644 returned an IC50 of 50 nM.
